From PMC12406195, “Understanding the Modes of Action of β‑Ketoiminato Iridium(III) Complexes in Cancer Cells” (Inorganic Chemistry, 2025)

Key:
MIA PaCa-2 cells = assay: Chemosensitivity (MTT cell viability) assay, MIA PaCa-2; type: cell-based, human; conditions: for IC50: MIA PaCa-2, 96 h, n = 9; for Selectivity index (SI): MIA PaCa-2 compared to ARPE-19, 96 h
Method: (§1) All cytotoxicity assays were conducted using human cell lines: breast adenocarcinomas (MDA-MB-231 and MCF-7), pancreatic carcinoma (MIA PaCa-2) and non-cancerous epithelial retinal (ARPE-19) cell lines. All cell lines were routinely maintained as monolayer cultures in appropriate complete media:
(§2) MCF-7, MIA PaCa-2 and ARPE-19 in high glucose DMEM and MDA-MB-231 in RPMI-1640, and both media were supplemented with 10% FBS, 1 mM sodium pyruvate, 2 mM L-glutamine, and 1% pen-strep. All cells were initially grown in T-25 or T-75 flasks at 37 °C and 5% CO2. Before chemosensitivity studies, cell monolayers were passaged using trypsin-EDTA (0.05%) and diluted to a concentration of 1 x 10^4 cells/mL (or 4 x 10^4 cells mL for 24 h assays). All assays were conducted in 96-well plates, in which 100 µL of the cell suspension was added for 24 h at 37 °C and 5% CO2, and then 100 µL of compound/medium dilutions for a further 96 h (or 24 h). All compound stocks were made using sterile DMSO at 100 mM before dilution, and a maximum of 0.1% DMSO was used in each assay. After incubation, 3-(4,5-dimethylthiazol-2-yl)-2,5-diphenyltetrazolium bromide (20 µL, 5 mg/mL in PBS) was added to each well and incubated for 3 h at 37°C and 5% CO2. All solutions were then aspirated, DMSO (150 µL) added to each well, gently mixed, and the absorbance was measured at 540 nm using a ClarioStar spectrophotometer microplate reader. Results were plotted on a logarithmic scale, and the half maximal inhibitory concentration (IC50) was determined from a triplicate of triplicate repeats (n = 9) and reported as an IC 50 ± Standard Deviation (SD).

ARPE-19 cells = assay: Chemosensitivity (MTT cell viability) assay, noncancerous ARPE-19; type: cell-based, human; conditions: ARPE-19 noncancerous, 96 h, n = 9
Method: The cytotoxicity of the compounds against the cancer cell lines was also compared to the noncancerous retinal epithelial cell line, ARPE-19, to determine the possibility of cancer cell selectivity. […]
as §1, §2

MDA-MB-231 cells = assay: Chemosensitivity (MTT cell viability) assay, MDA-MB-231; type: cell-based, human; conditions: for IC50: n = 9; for Selectivity index (SI): MDA-MB-231 compared to ARPE-19, 96 h
Method: as §1, §2

MCF-7 cells = assay: Chemosensitivity (MTT cell viability) assay, MCF-7; type: cell-based, human; conditions: for IC50: MCF-7, 96 h, n = 9; for Selectivity index (SI): MCF-7 compared to ARPE-19, 96 h
Method: as §1, §2

plasmid DNA = assay: Plasmid DNA interaction, agarose gel electrophoresis; type: biochemical; conditions: 200 ng plasmid DNA, 100–400 μM, cell-free
Method: The ability of compounds to intercalate, nick, or cleave DNA can be evaluated using gel electrophoresis with plasmid DNA. In this study, in vitro plasmid DNA assays were performed by incubating 200 ng of plasmid DNA with different concentrations (100–400 μM) of 1 or CDDP, which served as a positive control. The DNA fragments were then separated via agarose gel electrophoresis, and potential changes in DNA migration patterns were analyzed.
5 Plasmid DNA (200 ng) was incubated with varying concentrations (100, 200, and 400 μM) of compound 1 or CDDP for 24 h at room temperature. The DNA was then separated via agarose gel electrophoresis, and the intensity of supercoiled and nicked circular DNA bands was quantified and expressed as mean ± SEM (n = 4).
MDA-MB-231 cells at 4000 cells/well were seeded into a black clear -bottom 96-well plate using phenol-red free complete RMPI medium, and incubated for 48 h. […] Fluorescence images were obtained using a Zeiss Observer 7 inverted microscope at excitation at 488 nm and emission at 509 […]
Plasmid DNA (200 ng, pBOS -H2B-GFP, BD Biosciences) was incubated overnight at room temperature with 1 or CDDP at concentrations between 100 and 400 μM in double -distilled H2O (20 μL total volume). […] The experiment was conducted in two biological replicates, and the band intensities were quantified and analyzed using ImageJ software. […]

[1] = Stability by UV/vis spectroscopy in fully supplemented phenol-red free media; type: physicochemical; conditions: 37 °C, monitored over 96 h
Method: d6/D2O mixture (70/30) spiked with 0.1 M NaCl for 96 hours, before HR -MS was conducted; these are […]
Stability Assay by NMR Spectroscopy
Compounds 1-4 (3-4 mg) were dissolved in a 500 µL mixture of 90% DMSO -d6 and 10% D2O. 1H and 31P NMR spectra were obtained by a Bruker Avance 500 MHz at room temperature and multiple time points over 4 days. A solution of sodium chloride in D2O (26.3 g/L, 143 µL) was added to the same samples (final concentration 0.1 M NaCl in 70 % DMSO-d6 and 30% D2O) to mimic the chloride concentration in blood. 1H and 31P NMR spectra were obtained by a Bruker Avance 500 MHz at room temperature and multiple time points over 4 days.
Stability Assays by UV/vis Spectroscopy
The compounds were dissolved in DMSO and added to fully supplemented DMEM phenol-red free media (see Cell Viability Assays section for all additives) under sterile conditions to obtain a final concentration of 60 µg/mL. UV/vis spectra were obtained every 30 min for 96 h at 37 °C.
as §1
MCF-7, MIA PaCa-2 and ARPE-19 in high glucose DMEM and MDA-MB-231 in RPMI-1640, and both media were supplemented with 10% FBS, 1 mM sodium pyruvate, 2 mM L-glutamine, and 1% pen-strep. All cells were initially grown in T-25 or T-75 flasks at 37 °C and 5% CO2. […] All solutions were then aspirated, DMSO (150 µL) added to each well, gently mixed, and the absorbance was measured at 540 nm using a ClarioStar spectrophotometer microplate reader. Results were plotted on a logarithmic scale, and the half maximal inhibitory concentration (IC50) was determined from a triplicate of triplicate repeats (n = 9) and reported as an IC 50 ± Standard Deviation (SD).

| Compound | IC50 (MIA PaCa-2 cells) [µM] | Selectivity index (SI) (MIA PaCa-2 cells) | IC50 (ARPE-19 cells) [µM] | IC50 (MDA-MB-231 cells; MDA-MB-231, 24 h) [µM] | IC50 (MDA-MB-231 cells; MDA-MB-231, 96 h) [µM] | Selectivity index (SI) (MDA-MB-231 cells) | IC50 (MCF-7 cells) [µM] | Selectivity index (SI) (MCF-7 cells) | Plasmid DNA migration (plasmid DNA) | Time to full decomposition (no further changes in UV/vis spectra) [1] |
| --- | --- | --- | --- | --- | --- | --- | --- | --- | --- | --- |
| N.N.O=C([O-])C1(C(=O)[O-])CCC1.[Pt+2] [CARB, carboplatin, reference compound] | 40 ± 4 | > 2.5 | > 100 | > 100 | 16 ± 1 | > 6.3 | 40 ± 1 | > 2.5 | – | – |
| [NH2][Pt]([NH2])([Cl])[Cl] [CDDP, cisplatin, reference compound] | 3.9 ± 0.6 | 1.5 | 6 ± 0.2 | > 100 | 2.2 ± 0.3 | 2.7 | 6.1 ± 0.9 | 1.0 | faster DNA migration | – |
| [Cp*Ir(C16H12Cl2NO)(PTA)](PF6) [Compound 2] | 14.9 ± 0.7 | 1.1 | 16 ± 1 | 21 ± 1 | 5.4 ± 0.3 | 3.0 | 45.1 ± 0.8 | 0.4 | – | 64 h |
| [Cp*Ir(C16H13BrNO)(PTA)](PF6) [Compound 3] | 11.2 ± 0.1 | 1.3 | 14.6 ± 0.8 | 22 ± 1 | 4.8 ± 0.5 | 3.0 | 32.4 ± 0.3 | 0.5 | – | over 96 h |
| [Cp*Ir(C18H18NO2)(PTA)](PF6) [Compound 4] | 10 ± 1 | 1.1 | 10.7 ± 0.4 | 36 ± 1 | 4.1 ± 0.5 | 2.6 | 34.3 ± 0.6 | 0.3 | – | 72 h |
